In US20250332173A1, “COMPOUNDS AND METHODS FOR MODULATING NUCLEIC ACID SPLICING” (REMIX THERAPEUTICS INC., priority 2021, published 2025):
Where two headings read alike, the source gives them in different places.

Columns and labels:
Target C = experiment: RT-qPCR splicing assay panel, Target C canonical junction (CJ) mRNA; format: cell-based, human; settings: Homo sapiens; Table 5 panel; canonical junction qPCR; compound concentration having 50% response in CJ decrease; read-out: Target C IC50 (decrease in CJ mRNA levels)
Procedure, shortened: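 K562/A673 cells, 11-pt 3-fold compound titration from 10 uM final, DMSO ≤0.25%, 24 h 37 °C 5% CO2; lyse (DNase I or Igepal/Tris buffer pH 7.4); RT-qPCR for CJ isoform vs housekeeping gene (GAPDH/GUSB/PPIA).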

HTT mRNA = experiment: RT-qPCR splicing assay, HTT canonical junction (CJ) and alternative junction (AJ) mRNA; format: cell-based, human; settings: Homo sapiens
Procedure, shortened: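 24 h treatment, 37 °C/5% CO2; A673 or K562; 11-pt 3-fold series, top 10 uM final; DMSO ≤0.25%. Cell lysis with DNase I, then 1-step RT-qPCR. Housekeeping normalization: PPIA (A673), GAPDH or GUSB (K562).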

`Cc1cn2nc(-c3ccc4c(=O)n([C@@H]5C[C@H]6CC[C@@H](C5)N6)ncc4c3)cc(C)c2n1` [Compound 280] showed an IC50 (Target C) of 1000 to 10000 nM, an IC50 (HTT mRNA; decrease in HTT canonical junction (CJ) mRNA, RT-qPCR, read-out: HTT CJ IC50) of 100 to 1000 nM and an AC50 (HTT mRNA; increase in HTT alternative junction (AJ) mRNA, RT-qPCR, read-out: HTT AJ AC50) of 100 to 1000 nM. For the same compound, the IC50 (HTT mRNA; Table 5 panel, canonical junction qPCR, compound concentration having 50% response in CJ decrease, read-out: HTT IC50 (decrease in CJ mRNA levels)) was 100 to 1000 nM.
